# Key:
# C32 cells [1] = assay: Intracellular total glutathione (GSH); settings: C32, 24 HR
# Experimental: (§1) Intracellular Glutathione (GSH) Levels: Intracellular glutathione levels were determined essentially as described by Griffith (1980) with modifications. At the end of the exposure period, the medium was removed from the cells and metaphosphoric acid (MPA) was added to each well. Plates were then shaken for 5 min at room temperature and stored at −20° C. until needed.
# (§2) The sample plates were thawed just prior to analysis and centrifuged at >2000×g for at least 2 min. Sample aliquots were removed and transferred to a clean 96-well plate along with appropriate standard curve controls. Sample pH was neutralized just prior to analysis and each well received an aliquot of sodium phosphate reaction buffer containing EDTA, DTNB, NADPH, and glutathione reductase. The plates were mixed for 15-30 min at room temperature and glutathione content was determined calorimetrically with a Packard Fusion or equivalent reader at 415 nm.
# (§3) Intracellular Glutathione (GSH) Levels: The assay is based on the concept that all GSH is oxidized to GSSG by DTNB reagent. Two molecules of GSH are required to make one molecule of GSSG. Total GSH was determined by reducing GSSG to 2GSH with glutathione reductase. A standard curve was prepared with oxidized glutathione (GSSG) over a range of concentrations. These concentrations are then converted to glutathione equivalents (GSX) essentially by multiplying the GSSG standard concentrations by 2. The amount of GSX expressed as pmoles/well was determined using the standard curve and regression analysis.
# (§4) The test compound consisted of two parts mixed in a constant ratio of 5:1. The final test mixture consisted of Test mix 1 and Test mix 2, which were received as frozen solutions. The test mixture was tested in a ratio of 5:1 COMP A in five different cell types which included the following: SK-MEL28, human hepatocytes, HUVEC, C32, and NHEM cells. Cells were seeded into 96-well plates and cultured in medium containing 10% bovine serum. Following an equilibration period of 48 hr, the cells were treated with the test compound mix at concentrations of COMP A (μg/mL)=(250:50), (125:25), (25:12.5), (12.5:2.5), (2.5:1.25), (1.25:0.25), and (0.25:0.05) for 24 hr (overnight) at 37° C. in 5% CO2. […] Following an equilibration period of 4 hr, the cells were treated with the test compound mix at concentrations of COMP A (μg/mL)=(250:50), (125:25), (25:12.5), (12.5:2.5), (2.5:1.25), (1.25:0.25), and (0.25:0.05) for 24 hr (overnight) at 37° C. in 5% CO2.
# (§5) Experimental Protocol: The test compounds were shipped on dry ice for testing. The compounds were stored frozen at −80° C. until needed. Dosing solutions were prepared in complete culture medium. SK-MEL28, human hepatocytes, HUVEC, C32, and NHEM cells were used as the test systems. Cells were seeded into 96-well plates and allowed to equilibrate for approximately 48 hr. Following the equilibration period the cells were exposed to the test compound mix at concentrations of COMP A (μg/mL)=(250:50), (125:25), (25:12.5), (12.5:2.5), (2.5:1.25), (1.25:0.25), and (0.25:0.05). Solubility was determined by Nephalometry techniques immediately after dosing and prior to harvesting the cells at 24 hr. Following the exposure period, the cells or their supernatant (culture medium) were analyzed for changes in cell proliferation, membrane leakage, mitochondrial function, oxidative stress, and apoptosis. The resultant exposure concentration response curves were graphed and analyzed for determining the concentration that produced a half maximal response or TC50.
# HUVEC [2] = assay: Intracellular total glutathione (GSH); settings: HUVEC, 24 HR
# Experimental: as §1, §2, §3, §4, §5
# human hepatocytes [3] = assay: Intracellular total glutathione (GSH); settings: 24 HR
# Experimental: as §1, §2, §3, §4, §5
# C32 cells [4] = assay: Membrane lipid peroxidation (8-isoprostane ELISA); settings: C32, 24 HR
# Experimental: (§6) Lipid Peroxidation Measured as 8-Isoprostane (8-ISO): 8-ISO levels were determined using an ELISA. 8-ISO is a member of a family of eicosanoids produced non-enzymatically by random oxidation of tissue phospholipids by oxygen radicals. Therefore, an increase in 8-ISO is an indirect measure of increased lipid peroxidation (Vacchiano and Tempel, 1994). At the end of the exposure period, plates were either analyzed immediately or stored at −80° C. until needed for analysis. Color development, which is […] to the amount of 8-ISO present in the sample, was read on a Packard Fusion or equivalent plate reader at 415 nm.
# (§7) Lipid Peroxidation Measured as 8-Isoprostane (8-ISO): Background absorbance produced from Ellman's reagent is subtracted from all wells. Non-specific binding is subtracted from the maximum binding wells to give a corrected maximum binding expressed as Bo. The percent of bound (B) relative to maximum binding capacity (Bo) for all unknown samples and for standards was determined an expressed as (% B/Bo). The % B/Bo for standards was plotted against the log of 8-ISO added to yield the final standard curve. This curve was used to convert % B/Bo to pg 8-ISO/mL of sample.
# as §4, §5
# HUVEC [5] = assay: Membrane lipid peroxidation (8-isoprostane ELISA); settings: 24 HR
# Experimental: as §6, §7, §4, §5
# NHEM cells = assay: Membrane lipid peroxidation (8-isoprostane ELISA); settings: 24 HR
# Experimental: as §6, §7, §4, §5
# human hepatocytes [6] = assay: Membrane lipid peroxidation (8-isoprostane ELISA); settings: 24 HR
# Experimental: as §6, §7, §4, §5
SMILES,Percent Change in Total GSH (C32 cells [1]) [%],Percent Change in Total GSH (HUVEC [2]) [%],Percent Change in Total GSH (human hepatocytes [3]) [%],Membrane Lipid Peroxidation (C32 cells [4]),Membrane Lipid Peroxidation (HUVEC [5]),Membrane Lipid Peroxidation (NHEM cells),Membrane Lipid Peroxidation (human hepatocytes [6])
"C=C(C)[C@H]1Cc2c(ccc3c2O[C@@H]2COc4cc(OC)c(OC)cc4[C@@H]2C3=O)O1 [ROTENONE, Rotenone]",12.9,11.3,95.9,0,1 (1 = Modest increase with maximum values ≦15 pg/mL),2 (2 = Concentration related increase with maximum values ≧15 pg/mL),0
"CC[C@@]1(O)C(=O)OCc2c1cc1n(c2=O)Cc2cc3ccccc3nc2-1 [CAMPTOTHECIN, Camptothecin]",−41.1,−85.8,−69.9,0,2 (2 = Concentration related increase with maximum values ≧15 pg/mL),1 (1 = Modest increase with maximum values ≦15 pg/mL),1 (1 = Modest increase with maximum values ≦15 pg/mL)

# — patent publication US7615361B2, “Toxicity screening methods” (Ceetox, Inc., priority 2006, dated 2009)
